Assay results published in PubChem BioAssay (NCI).
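Tested at 5 concentrations; 48 h exposure; 96-well plates; endpoints linearly interpolated, else capped at highest concentration. TGI: total growth inhibition.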

Experiments:
Test in all cases: inhibition of tumour cell growth, NCI panel, 48 h
U251 CNS = tested on: U251 CNS
SNB-75 CNS = tested on: SNB-75 CNS
SF-268 CNS = tested on: SF-268 CNS
EKVX NSCLC = tested on: EKVX NSCLC
TK-10 renal = tested on: TK-10 renal
HT29 colon = tested on: HT29 colon
MDA-N = tested on: MDA-N
SF-295 CNS = tested on: SF-295 CNS
UACC-62 melanoma = tested on: UACC-62 melanoma
IGROV1 ovarian = tested on: IGROV1 ovarian
A549 NSCLC = tested on: A549 NSCLC
KM12 colon = tested on: KM12 colon
SK-MEL-5 melanoma = tested on: SK-MEL-5 melanoma
RXF 393 renal = tested on: RXF 393 renal
M14 melanoma = tested on: M14 melanoma
K-562 leukemia = tested on: K-562 leukemia
LOX IMVI melanoma = tested on: LOX IMVI melanoma
RPMI-8226 leukemia = tested on: RPMI-8226 leukemia
OVCAR-4 ovarian = tested on: OVCAR-4 ovarian
COLO 205 colon = tested on: COLO 205 colon
SK-MEL-28 melanoma = tested on: SK-MEL-28 melanoma
MDA-MB-435 = tested on: MDA-MB-435
MOLT-4 leukemia = tested on: MOLT-4 leukemia
SR leukemia = tested on: SR leukemia
HOP-92 NSCLC = tested on: HOP-92 NSCLC
SK-MEL-2 melanoma = tested on: SK-MEL-2 melanoma
HS 578T breast = tested on: HS 578T breast
MDA-MB-231 breast = tested on: MDA-MB-231 breast
HCT-15 colon = tested on: HCT-15 colon
OVCAR-5 ovarian = tested on: OVCAR-5 ovarian
HOP-62 NSCLC = tested on: HOP-62 NSCLC
UO-31 renal = tested on: UO-31 renal
T-47D breast = tested on: T-47D breast
MALME-3M melanoma = tested on: MALME-3M melanoma
CCRF-CEM leukemia = tested on: CCRF-CEM leukemia
MCF7 breast = tested on: MCF7 breast
NCI/ADR-RES ovarian = tested on: NCI/ADR-RES ovarian
NCI-H522 lung = tested on: NCI-H522 lung
SNB-19 CNS = tested on: SNB-19 CNS
UACC-257 melanoma = tested on: UACC-257 melanoma
SW-620 colon = tested on: SW-620 colon
NCI-H226 lung = tested on: NCI-H226 lung
OVCAR-8 ovarian = tested on: OVCAR-8 ovarian
ACHN renal = tested on: ACHN renal
CAKI-1 renal = tested on: CAKI-1 renal
OVCAR-3 ovarian = tested on: OVCAR-3 ovarian
A498 renal = tested on: A498 renal
786-0 renal = tested on: 786-0 renal
PC-3 prostate = tested on: PC-3 prostate
NCI-H460 lung = tested on: NCI-H460 lung
NCI-H23 lung = tested on: NCI-H23 lung
HCC-2998 colon = tested on: HCC-2998 colon
SF-539 CNS = tested on: SF-539 CNS
DU-145 prostate = tested on: DU-145 prostate
SK-OV-3 ovarian = tested on: SK-OV-3 ovarian
HL-60(TB) leukemia = tested on: HL-60(TB) leukemia
SN12C renal = tested on: SN12C renal
BT-549 breast = tested on: BT-549 breast

O[C@@H]1CCC[C@@H]2NC[C@@H](c3ccc4c(c3)OCO4)[C@H]12
TGI (U251 CNS): > 100000 nM
TGI (SNB-75 CNS): > 100000 nM
TGI (SF-268 CNS): > 100000 nM
TGI (EKVX NSCLC): > 100000 nM
TGI (TK-10 renal): > 100000 nM
TGI (HT29 colon): > 100000 nM
TGI (MDA-N): > 100000 nM
TGI (SF-295 CNS): > 100000 nM
TGI (UACC-62 melanoma): > 100000 nM
TGI (IGROV1 ovarian): > 100000 nM
TGI (A549 NSCLC): > 100000 nM
TGI (KM12 colon): > 100000 nM
TGI (SK-MEL-5 melanoma): > 100000 nM
TGI (RXF 393 renal): > 100000 nM
TGI (M14 melanoma): > 100000 nM
TGI (K-562 leukemia): > 100000 nM
TGI (LOX IMVI melanoma): > 100000 nM
TGI (RPMI-8226 leukemia): > 100000 nM
TGI (OVCAR-4 ovarian): > 100000 nM
TGI (COLO 205 colon): > 100000 nM
TGI (SK-MEL-28 melanoma): > 100000 nM
TGI (MDA-MB-435): > 100000 nM
TGI (MOLT-4 leukemia): > 100000 nM
TGI (SR leukemia): > 100000 nM
TGI (HOP-92 NSCLC): > 100000 nM
TGI (SK-MEL-2 melanoma): > 100000 nM
TGI (HS 578T breast): > 100000 nM
TGI (MDA-MB-231 breast): > 100000 nM
TGI (HCT-15 colon): > 100000 nM
TGI (OVCAR-5 ovarian): > 100000 nM
TGI (HOP-62 NSCLC): > 100000 nM
TGI (UO-31 renal): > 100000 nM
TGI (T-47D breast): > 100000 nM
TGI (MALME-3M melanoma): > 100000 nM
TGI (CCRF-CEM leukemia): > 100000 nM
TGI (MCF7 breast): > 100000 nM
TGI (NCI/ADR-RES ovarian): > 100000 nM
TGI (NCI-H522 lung): > 100000 nM
TGI (SNB-19 CNS): > 100000 nM
TGI (UACC-257 melanoma): > 100000 nM
TGI (SW-620 colon): > 100000 nM
TGI (NCI-H226 lung): > 100000 nM
TGI (OVCAR-8 ovarian): > 100000 nM
TGI (ACHN renal): > 100000 nM
TGI (CAKI-1 renal): > 100000 nM
TGI (OVCAR-3 ovarian): > 100000 nM
TGI (A498 renal): > 100000 nM
TGI (786-0 renal): > 100000 nM
TGI (PC-3 prostate): > 100000 nM
TGI (NCI-H460 lung): > 100000 nM
TGI (NCI-H23 lung): > 100000 nM
TGI (HCC-2998 colon): > 100000 nM
TGI (SF-539 CNS): > 100000 nM
TGI (DU-145 prostate): > 100000 nM
TGI (SK-OV-3 ovarian): > 100000 nM
TGI (HL-60(TB) leukemia): > 100000 nM

COc1cc2cc(C(=O)N3CC(CCl)c4ccc(N(C)C)cc43)[nH]c2c(OC)c1OC (stereo unspecified)
TGI (U251 CNS): 4050 nM
TGI (SF-268 CNS): 3810 nM
TGI (EKVX NSCLC): 558 nM
TGI (TK-10 renal): > 100000 nM
TGI (MDA-N): 431 nM
TGI (SF-295 CNS): 726 nM
TGI (UACC-62 melanoma): 524 nM
TGI (KM12 colon): 543 nM
TGI (SK-MEL-5 melanoma): 236 nM
TGI (RXF 393 renal): 76.1 nM
TGI (M14 melanoma): 237 nM
TGI (K-562 leukemia): > 100000 nM
TGI (LOX IMVI melanoma): 289 nM
TGI (OVCAR-4 ovarian): 729 nM
TGI (COLO 205 colon): 213 nM
TGI (SK-MEL-28 melanoma): 121 nM
TGI (MDA-MB-435): 336 nM
TGI (MOLT-4 leukemia): 443 nM
TGI (SK-MEL-2 melanoma): 128 nM
TGI (HS 578T breast): 758 nM
TGI (MDA-MB-231 breast): 627 nM
TGI (HCT-15 colon): > 59900 nM
TGI (OVCAR-5 ovarian): 259 nM
TGI (HOP-62 NSCLC): 265 nM
TGI (UO-31 renal): 143 nM
TGI (T-47D breast): 378 nM
TGI (CCRF-CEM leukemia): 633 nM
TGI (MCF7 breast): 604 nM
TGI (NCI/ADR-RES ovarian): 272 nM
TGI (NCI-H522 lung): 34.9 nM
TGI (SNB-19 CNS): 8210 nM
TGI (SN12C renal): 531 nM
TGI (SW-620 colon): 773 nM
TGI (NCI-H226 lung): 428 nM
TGI (BT-549 breast): 1330 nM
TGI (CAKI-1 renal): 1280 nM
TGI (OVCAR-3 ovarian): 363 nM
TGI (PC-3 prostate): 979 nM
TGI (NCI-H460 lung): 7010 nM
TGI (NCI-H23 lung): 118 nM
TGI (HCC-2998 colon): 106 nM
TGI (SF-539 CNS): 200 nM
TGI (DU-145 prostate): 359 nM
TGI (SK-OV-3 ovarian): 1540 nM
TGI (HL-60(TB) leukemia): 292 nM
